Legend:
Experiment in all cases: Binding to micellar cis-9-octadecenyl phosphocholine by UV absorption difference spectroscopy
Conditions in all cases: micellar ligand, N = number of lipid monomers per molecule of enzyme, KD = micellar dissociation constant, read-out: N.KD apparent dissociation constant
[1] = biological target: T1, Porcine pancreatic phospholipase A₂, [ε-Ol-Lys¹¹⁶]-AMPA (Sus scrofa, UniProt P00592)
T1 construct: Conversion of pro-PLA (i.e. Prec) into [ε-Acyl-Lys¹¹⁶]-AMPA; from tissue; host or cells: pig pancreas; chemically amidinated and oleoylated at Lys116
T1 sequence (P00592 23-146): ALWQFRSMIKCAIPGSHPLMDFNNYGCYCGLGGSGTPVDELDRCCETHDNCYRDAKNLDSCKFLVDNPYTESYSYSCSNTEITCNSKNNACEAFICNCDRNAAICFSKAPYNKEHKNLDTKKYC
Text: The following methods, in which the abbreviations used have the meanings given hereinafter, are used for determining the enzymatic activity, the lipid binding properties and the penetrating capacity of the site-specific mono-acylated phospholipases A2 belonging to the invention: -PLA: phospholipase […]: fully ε-amidinated pro-PLA -AMPA: fully ε-amidinated PLA -t-Boc: tertiary butoxycarbonyl -For: formyl -TFA: trifluoroacetic acid -Tris: tri(hydroxymethyl)amino methane -DFP: diisopropylfluorophosphate -DEAE: diethylamino ethyl -CM: carboxymethyl -FPLC: fast protein liquid chromatography -LC: liquid chromatography -TPCK: […]-2-ethanesulphonic acid -DABITC: dimethylamino azobenzene-iso-thiocyanate. • a. Protein concentrations are determined from the absorption at 280 nm using E 1 cm (1%) of 13.0 for porcine and bovine pancreatic ε-amidinated PLA and the mono-acylated analogs thereof. […] Monolayer experiments are carried out using the zero order through with two compartments and the surface barostat technique for measuring phospholipid hydrolysis ([…] and De Haas, Chem. Phys. Lipids, 10, (1973), 127-136). Calculation of the induction time (τ) is carried out as described by […] et al. J. Biol. Chem. 248 (1973), 4023-4034). Surface tension (π) is measured by means of the plate method by Wilhelmy using a thin platinum plate attached to a Beckman R II C Model LM 600 microbalance. • d. […]

[2] = biological target: T2, Porcine pancreatic phospholipase A₂, AMPA (fully ε-amidinated PLA) (Sus scrofa, UniProt P00592)
T2 construct: fully ε-amidinated according to the method by Wallace and Harris, Biochem. J., 217, (1984), 589-594, and converted into AMPA; from tissue; host or cells: pig pancreas; chemically amidinated as the pro-enzyme, then converted to the active enzyme
T2 sequence (P00592 23-146): as above
Text: (§1) The following methods, in which the abbreviations used have the meanings given hereinafter, are used for determining the enzymatic activity, the lipid binding properties and the penetrating capacity of the site-specific mono-acylated phospholipases A2 belonging to the invention: -PLA: phospholipase […]: fully ε-amidinated pro-PLA -AMPA: fully ε-amidinated PLA -t-Boc: tertiary butoxycarbonyl -For: formyl -TFA: trifluoroacetic acid -Tris: tri(hydroxymethyl)amino methane -DFP: diisopropylfluorophosphate -DEAE: diethylamino ethyl -CM: carboxymethyl -FPLC: fast protein liquid chromatography -LC: liquid chromatography -TPCK: […]-2-ethanesulphonic acid -DABITC: dimethylamino azobenzene-iso-thiocyanate. • a. Protein concentrations are determined from the absorption at 280 nm using E 1 cm (1%) of 13.0 for porcine and bovine pancreatic ε-amidinated PLA and the mono-acylated analogs thereof. […] Monolayer experiments are carried out using the zero order through with two compartments and the surface barostat technique for measuring phospholipid hydrolysis ([…] and De Haas, Chem. Phys. Lipids, 10, (1973), 127-136). Calculation of the induction time (τ) is carried out as described by […] et al. J. Biol. Chem. 248 (1973), 4023-4034). Surface tension (π) is measured by means of the plate method by Wilhelmy using a thin platinum plate attached to a Beckman R II C Model LM 600 microbalance. • d. Kinetic measurements with micellar diC8PC are carried out according to De Haas et al, Biochem. Biophys. Acta, 239, (1971) 252-266. […] From the table it appears that the presence of a covalently attached long chain fatty acid on […] or […] considerably improves the binding of the enzyme to the zwitterionic detergent. A larger chain length of the fatty acid leads to a lower apparent dissociation constant (N.KD), which means a greater affinity to the organized lipid-water interface which is formed by the micellar substrate analog. [table]

[3] = biological target: T3, Bovine pancreatic phospholipase A₂ (PLA), native (Bos taurus, UniProt P00593)
T3 construct: pancreatic pro-PLA's can be purified and converted into the corresponding PLA's; from tissue; host or cells: bovine pancreas
T3 sequence (P00593 23-145): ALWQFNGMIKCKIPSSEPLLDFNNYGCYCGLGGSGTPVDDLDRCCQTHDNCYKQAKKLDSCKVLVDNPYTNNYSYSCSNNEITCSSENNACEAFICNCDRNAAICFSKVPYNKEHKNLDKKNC
Text: as §1

[4] = biological target: T4, Porcine pancreatic phospholipase A₂, [ε-Cap-Lys¹¹⁶]-AMPA (Sus scrofa, UniProt P00592)
T4 construct: Conversion of pro-PLA (i.e. Prec) into [ε-Acyl-Lys¹¹⁶]-AMPA; from tissue; host or cells: pig pancreas; chemically amidinated and caprinoylated at Lys116
T4 sequence (P00592 23-146): as the sequence (P00592 23-146) above
Text: as §1

[5] = biological target: T5, Porcine pancreatic phospholipase A₂, [ε-Pal-Lys¹¹⁶]-AMPA (Sus scrofa, UniProt P00592)
T5 construct: Conversion of pro-PLA (i.e. Prec) into [ε-Acyl-Lys¹¹⁶]-AMPA; from tissue; host or cells: pig pancreas; chemically amidinated and palmitoylated at Lys116
T5 sequence (P00592 23-146): as above
Text: as §1

[6] = biological target: T6, Bovine pancreatic phospholipase A₂, [Arg⁶]-AMPA (Bos taurus, UniProt P00593, N28R)
T6 construct: fully ε-amidinated according to the method by Wallace and Harris, Biochem. J., 217, (1984), 589-594, and converted into AMPA; from tissue; host or cells: bovine pancreas
T6 sequence (P00593 23-145 N28R): as the sequence (P00593 23-145) above, with N6R counted along it
Text: as §1

[7] = biological target: T7, Porcine pancreatic phospholipase A₂, [ε-Ac-Lys¹¹⁶]-AMPA (Sus scrofa, UniProt P00592)
T7 construct: Conversion of pro-PLA (i.e. Prec) into [ε-Acyl-Lys¹¹⁶]-AMPA; from tissue; host or cells: pig pancreas; chemically amidinated and acetylated at Lys116
T7 sequence (P00592 23-146): as the sequence (P00592 23-146) above
Text: as §1

[8] = biological target: T8, Porcine pancreatic phospholipase A₂, [ε-Lau-Lys¹¹⁶]-AMPA (Sus scrofa, UniProt P00592)
T8 construct: Conversion of pro-PLA (i.e. Prec) into [ε-Acyl-Lys¹¹⁶]-AMPA; from tissue; host or cells: pig pancreas; chemically amidinated and lauroylated at Lys116
T8 sequence (P00592 23-146): as above
Text: as §1

[9] = biological target: T9, Porcine pancreatic phospholipase A₂, [ε-Mal-Lys¹¹⁶]-AMPA (Sus scrofa, UniProt P00592)
T9 construct: Conversion of pro-PLA (i.e. Prec) into [ε-Acyl-Lys¹¹⁶]-AMPA; from tissue; host or cells: pig pancreas; chemically amidinated and maleylated at Lys116
T9 sequence (P00592 23-146): as above
Text: as §1

[10] = biological target: T10, Bovine pancreatic phospholipase A₂, AMPA (fully ε-amidinated PLA) (Bos taurus, UniProt P00593)
T10 construct: fully ε-amidinated according to the method by Wallace and Harris, Biochem. J., 217, (1984), 589-594, and converted into AMPA; from tissue; host or cells: bovine pancreas; chemically amidinated as the pro-enzyme, then converted to the active enzyme
T10 sequence (P00593 23-145): as the sequence (P00593 23-145) above
Text: as §1

[11] = biological target: T11, Porcine pancreatic phospholipase A₂ (PLA), native (Sus scrofa, UniProt P00592)
T11 construct: pancreatic pro-PLA's can be purified and converted into the corresponding PLA's; from tissue; host or cells: pig pancreas
T11 sequence (P00592 23-146): as the sequence (P00592 23-146) above
Text: as §1

[12] = biological target: T12, Bovine pancreatic phospholipase A₂, [Arg⁶,ε-Pal-Lys¹⁰]-AMPA (Bos taurus, UniProt P00593, N28R)
T12 construct: Conversion of fully ε-amidinated bovine pancreatic AMPrec in [Arg⁶, ε-Pal-Lys¹⁰]-AMPA; from tissue; host or cells: bovine pancreas; semisynthetic: amidinated fragment 11-123 re-elongated with Pal-Lys, Ile, Met and Ala.Leu.Trp.Gln.Phe.Arg.Gly
T12 sequence (P00593 23-145 N28R): as the sequence (P00593 23-145) above, with N6R counted along it
Text: as §1

[13] = biological target: T13, Porcine pancreatic phospholipase A₂, [ε-NH₂-Lys¹¹⁶]-AMPA (Sus scrofa, UniProt P00592)
T13 construct: incubated with 0.1% (wt/wt) trypsin at pH 8.0 (10 mM Tris, 5 mM Ca²⁺) in order to obtain [ε-NH₂-Lys-]AMPA; from tissue; host or cells: pig pancreas; partial amidination in the presence of diC8GS, then trypsin conversion of the pro-enzyme
T13 sequence (P00592 23-146): as the sequence (P00592 23-146) above
Text: as §1

CCCCCCCC/C=C\CCCCCCCCOP(=O)([O-])OCC[N+](C)(C)C [cis-9-octadecenylphosphocholine]
Kd [1]: 18 µM
Kd [2]: 76 µM
Kd [3]: 660 µM
Kd [4]: 33 µM
Kd [5]: 12 µM
Kd [6]: 120 µM
Kd [7]: 38 µM
Kd [8]: 29 µM
Kd [9]: 43 µM
Kd [10]: 3200 µM
Kd [11]: 58 µM
Kd [12]: 20 µM
Kd [13]: 44 µM

Reference: patent EP0311163A2, “Use of site-specific modified lipolytic enzymes for the selective hydrolysis of organized lipid structures” (DUPHAR INTERNATIONAL RESEARCH B.V, priority 1987, dated 1989)
